Measured values from publication PMC6588697, “Lugdunin amplifies innate immune responses in the skin in synergy with host- and microbiota-derived factors” (Nature Communications, 2019).
Values joined by “and” are separate entries in the source; they are usually repeats but may differ in a detail not shown here. Equal values may be shown once. No end group written: not given here.

How the values were obtained:
[1] = test system: PHKs; assay: CXCL8 expression in PHKs (qRT-PCR, normalized to actin); type: cell-based, human; conditions: for CXCL8 expression normalized to actin / CXCL8 induction by S. epidermidis CM with added peptide: PHKs; for CXCL8 expression normalized to actin / CXCL8 induction by S. epidermidis CM with added peptide / induction of CXCL8 expression in PHKs: 5 h; for induction of CXCL8 expression in PHKs: single treatment, 2 µM human AMPs or lugdunin, 0.8 µM (pro)-gallidermin or nisin
Description: Fig. 1 Lugdunin sensitizes epithelial cells for innate immune defense. a Primary human keratinocytes (PHKs) were pretreated with S. epidermidis conditioned medium (CM), indicated lugdunin concentrations, or the combination of both for 20 h. Subsequently, cells were infected with S. aureus for 1.5 h followed by cell lysis and determination of colony-forming units (CFUs). Shown is one representative experiment of three independent experiments with six technical replicates ± s.e.m. n.s., not significant. b Dorsal skin of mice was pretreated with S. epidermidis CM, 1.5 µg lugdunin alone or in combination with S. epidermidis CM for 24 h. Subsequently, S. aureus CFUs were determined. Horizontal lines represent the mean of each group ± s.e.m. c PHKs were treated with 2 μM lugdunin or with S. epidermidis CM alone or in combination for 20 h and subsequently expression of indicated antimicrobial peptides (AMPs) (respective protein names in brackets) was analyzed and normalized to actin. Shown is one representative experiment of three independent experiments with two technical replicates ± s.e.m. d PHKs were treated with 2 µM lugdunin or 100 ng/mL Pam2Cys for 5 h and subsequently the concentration of indicated cytokines in the supernatant was analyzed by LEGENDplex^TM (BioLegend). Shown is one representative experiment of three independent experiments with two technical replicates ± s.e.m. e PHKs were treated with increasing concentrations of lugdunin or 100 ng/mL Pam2Cys or Pam3Cys for 5 h and subsequently expression of chemokine (C-X-C motif) ligand 8 (CXCL8) was analyzed and normalized to actin. Shown is one representative experiment of three independent experiments, each with two technical replicates ± s.e.m. f, g Indicated cells were treated with 2 µM lugdunin or 100 ng/mL Pam2Cys as a positive control for 5 h and subsequently the concentration of CXCL8 (f) and interleukin-1α (IL-1α) (g) in the supernatant was analyzed by LEGENDplex^TM (BioLegend) and enzyme-linked immunosorbent assay (ELISA) (R&D Systems). Shown is one representative experiment of three independent experiments with two technical replicates ± s.e.m. Significant differences to control treatments were analyzed by ordinary one-way analysis of variance (ANOVA) followed by Dunnett’s multiple comparisons test (*P < 0.05; **P < 0.01; ***P < 0.001; ****P < 0.0001). n.d. = not detected. Source data are provided as a Source Data file
Fig. 4 Lugdunin amplifies the commensal-induced chemokine (C-X-C motif) ligand (CXCL8) induction. a Primary human keratinocytes (PHKs) were either treated with 2 μM of human antimicrobial peptides (AMPs) (black bars) or lugdunin (blue bars), or 0.8 μM (pro)-gallidermin or nisin (black bars), or in combination with S. epidermidis conditioned medium (CM) (gray and red striped bars) for 5 h, and subsequently expression of CXCL8 was analyzed and normalized to actin. Shown is one representative experiment of three independent experiments with two technical replicates ± s.e.m. b PHKs were treated with 2 μM human AMPs, 2 μM lugdunin, 0.8 μM of the other bacteriocins (gray bars) or the correspondent peptide combinations (white bars), or 50 ng/mL Pam2Cys, 10 ng/mL IL-1α, or S. epidermidis CM as controls (black bars), for 5 h and subsequently expression of CXCL8 was analyzed and normalized to actin. Shown is one representative experiment of three independent experiments with two technical replicates ± s.e.m. Significant differences to control treatments were analyzed by ordinary one-way analysis of variance (ANOVA) followed by Dunnett’s multiple comparisons test (***P < 0.001; ****P < 0.0001). Source data are provided as a Source Data file
After 5 h or 20 h of peptide treatment, PHKs were washed once with PBS, followed by the addition of RNA lysis buffer directly into the well. Total RNA was extracted using the Nucleospin RNA Kit (Macherey-Nagel) according to the manufacturer’s protocol. […]

[2] = test system: E. faecalis; assay: Antimicrobial testing (CFU) against E. faecalis; type: cell-based, Enterococcus faecalis; conditions: 3 h, mean
[3] = test system: S. epidermidis; assay: Antimicrobial testing (CFU) against S. epidermidis; type: cell-based, Staphylococcus epidermidis; conditions: 3 h, mean
Description: (§1) For bactericidal testing, logarithmically growing staphylococci were resuspended in PBS (Sigma) containing 0.1% TSB (Carl Roth) and colony-forming unit (CFU) was adjusted to 3 × 10^6 CFU/mL. Different concentrations of single peptides and their combinations were diluted in PBS containing 0.1% TSB and incubated with bacteria in triplicates for 3 h at 37 °C and 150 rpm orbital shaking. Subsequently, serial dilutions (10^–1–10^–4) of the bacterial suspensions were prepared in PBS and 20 µL of each dilution was spotted in duplicates onto TSB plates and incubated at 37 °C overnight. The next day, the number of CFU was analyzed and the percentage of viable bacteria was determined by normalizing to the untreated control (100%). Results are illustrated in a S. aureus killing curve. In each experiment, negative control replicates (PBS + 0.1% TSB) as well as sterility control replicates were included.
(§2) Supplementary Figure 7: Efficiency of Lugdunin and DCD -1(L) combinations in 107 […]
(§3) logarithmically grown bacteria were incubated with indicated combinations of 109 lugdunin and DCD-1(L) in PBS containing 0.1% TSB at 37 °C orbital shaking. After 3 110 hours of incubation several dilutions of the bacterial suspensions were plated onto TSB 111 agar pl ates and incubated over night at 37 °C. The next day bacterial CFU were 112 counted. Each experiment was performed in triplicates. Data represent the mean 113 percentage of CFU normalized to the untreated control. Data represent the mean of at 114 least three independent experiments. 115
(§4) (1 picture or pasted object on this page, not shown here)

[4] = test system: B. subtilis; assay: Antimicrobial testing (CFU) against B. subtilis; type: cell-based, Bacillus subtilis; conditions: for B. subtilis CFU normalized to untreated control (1,00): 3 h, mean
Description: as §1, §2, §3, §4

[5] = test system: P. aeruginosa; assay: Antimicrobial testing (CFU) against P. aeruginosa; type: cell-based, Pseudomonas aeruginosa; conditions: 3 h
[6] = test system: E. coli; assay: Antimicrobial testing (CFU) against E. coli; type: cell-based, Escherichia coli; conditions: 3 h, mean
[7] = test system: P. mirabilis; assay: Antimicrobial testing (CFU) against P. mirabilis; type: cell-based, Proteus mirabilis; conditions: 3 h, mean
Description: as §1, §2, §3, §4

[8] = 2 µM human AMPs, 2 µM lugdunin, 0.8 µM other bacteriocins or their combinations, 50 ng/mL Pam2Cys, 10 ng/mL IL-1α, S. epidermidis CM, two technical replicates, Fig 4b
[9] = peptide (2 µM human AMPs or lugdunin, 0.8 µM gallidermin or nisin) in combination with S. epidermidis CM, two technical replicates, Fig 4a
[10] = single peptide 1 µM, PBS + 0.1% TSB, 37 °C, mean of at least three experiments
[11] = single treatment: 2 µM human AMPs or lugdunin, 0.8 µM (pro)-gallidermin or nisin, or S. epidermidis CM, M = 1, two technical replicates (rows), Fig 4a

Row | Substance | CXCL8 expression normalized to actin [1, 8] | CXCL8 expression normalized to actin [1, 9] | CXCL8 induction by S. epidermidis CM with added peptide ([1]; Fig 4a) | induction of CXCL8 expression in PHKs ([1]; S. epidermidis CM, Fig 4a) | E. faecalis CFU normalized to untreated control (1,00) ([2]; single peptide 1 µM) | E. faecalis CFU normalized to untreated control (1,00) ([2]; single peptide 2 µM) | S. epidermidis CFU normalized to untreated control (1,00) ([3]; single peptide 1 µM) | S. epidermidis CFU normalized to untreated control (1,00) ([3]; single peptide 2 µM) | B. subtilis CFU normalized to untreated control (1,00) ([4]; single peptide 1 µM) | B. subtilis CFU normalized to untreated control (1,00) ([4]; single peptide 2 µM) | P. aeruginosa CFU normalized to untreated control (1,00) [5, 10] | P. aeruginosa CFU normalized to untreated control (1,00) ([5]; single peptide 2 µM, mean) | CXCL8 expression normalized to actin [1, 11] | E. coli CFU normalized to untreated control (1,00) ([6]; single peptide 1 µM) | E. coli CFU normalized to untreated control (1,00) ([6]; single peptide 2 µM) | P. mirabilis CFU normalized to untreated control (1,00) ([7]; single peptide 1 µM) | P. mirabilis CFU normalized to untreated control (1,00) ([7]; single peptide 2 µM) | further results
1 | IASKFLCTPGCAKTGSFNSYCC (also: bicyclic or more (positions not given here)) [Gallidermin, bacteriocin isolated from Staphylococcus gallinarum] | 3.22 and 3.395 | 2.713 and 2.789 | completely blocked | not able to induce CXCL8 expression |  |  |  |  |  |  |  |  |  |  |  |  |  | 
2 | ITSISLCTPGCKTGALMGCNMKTATCHCSIHVSK (not fully specified (bridges); also: lanthionine rings, places not given here) [Nisin, bacteriocin of Lactococcus lactis, purchased from Sigma] | 3.325 and 3.22 | 88.3403 and 93.3773 | non-significant increase | not able to induce CXCL8 expression |  |  |  |  |  |  |  |  |  |  |  |  |  | 
3 | LLGDFFRKSKEKIGKEFKRIVQRIKDFLRNLVPRTES [LL-37, human cathelicidin AMP] | 1.54 and 1.645 | 38.5859 and 33.1285 |  | not able to induce CXCL8 expression |  |  |  |  |  |  |  |  |  |  |  |  |  | 
4 | Lugdunin | 43.47 and 44.695 | 1093.7 and 1265.07 | over 1000 fold | over 40 fold | 1,21 | 1,27 | 1,08 | 0,86 | 0,81 | 0,60 | 1,34 | 1,01 | 44.695 and 43.47 | 1,05 | 1,34 | 1,13 | 0,84 | E. faecalis CFU normalized to untreated control (1,00) ([2]; single peptide 3 µM): 0,99; S. epidermidis CFU normalized to untreated control (1,00) ([3]; single peptide 3 µM): 1,20; B. subtilis CFU normalized to untreated control (1,00) ([4]; single peptide 3 µM): 0,44; susceptibility of B. subtilis (in words) ([4]; text to Supp Fig 7): susceptible; P. aeruginosa CFU normalized to untreated control (1,00) ([5]; single peptide 3 µM, mean): 1,41; CXCL8 expression normalized to actin ([1]; lugdunin 0.5 µM, medium = 1, technical replicates, Fig 1e): 1.93 and 1.44 and 0.406 and 0.518; CXCL8 expression normalized to actin ([1]; lugdunin 1 µM, technical replicates, Fig 1e): 10.23 and 9.29 and 0.973 and 1.087; CXCL8 expression normalized to actin ([1]; lugdunin 2 µM, technical replicates, Fig 1e): 43.4456 and 47.5424 and 22.549 and 29.548; CXCL8 expression normalized to actin ([1]; lugdunin 3 µM, technical replicates, Fig 1e): 64.669 and 66.487; CXCL8 expression normalized to actin ([1]; lugdunin 5 µM, technical replicates, Fig 1e): 11.7628 and 11.128; CXCL8 expression normalized to actin ([1]; lugdunin 10 µM, technical replicates, Fig 1e): 2.0508 and 6.298; lugdunin concentrations that induced expression and release of CXCL8 in PHKs ([1]; higher concentrations did not induce CXCL8 production, text to Fig 1d, e): up to 3 µM; E. coli CFU normalized to untreated control (1,00) ([6]; single peptide 3 µM): 1,27; P. mirabilis CFU normalized to untreated control (1,00) ([7]; single peptide 3 µM): 0,98
5 | MEAVKEKNELFDLDVKVNAKESNDSGAEPRIASKFLCTPGCAKTGSFNSYCC [Pro-Gallidermin, non-bactericidal pro-form of gallidermin] | 3.465 and 3.43 |  |  |  |  |  |  |  |  |  |  |  |  |  |  |  |  | 
6 | SSLLEKGLDGAKKAVGGLGKLGKDAVEDLESVGKGAVHDVKDVLDSV [DCD-1, dermcidin-derived human AMP of eccrine sweat glands] | 13.37 and 13.02 | 61.3666 and 64.6468 |  | 10 fold | 1,48 | 1,58 | 1,51 | 0,94 | 1,14 | 1,04 | 0,93 | 1,21 | 13.02 and 13.37 | 1,31 | 1,87 | 1,05 | 0,98 | 
7 | SSLLEKGLDGAKKAVGGLGKLGKDAVEDLESVGKGAVHDVKDVLDSVL [DCD-1L, dermcidin-derived human AMP of eccrine sweat glands] | 2.31 and 2.52 | 45.0983 and 49.3507 |  |  | 1,40 | 1,55 | 1,43 | 1,33 | 0,96 | 0,63 | 1,39 | 1,19 | 2.52 and 2.31 | 1,26 | 1,92 | 0,95 | 1,10 | 
